In US10112899B2 (ViiV HEALTHCARE UK LIMITED, priority 2014, dated 2018):

System: HIV in the HTLV-1 transformed cell line MT-4
Assay: organism not typed
Assay type: cell-based
Details: MT4, 96 h, MT-4 cells; luciferase/cell titer glo readout after 96 hours; 10 point dose response

Compared with CCOCCC(=O)N1Cc2c(C)c(-c3ccc(C)cc3)c([C@H](OC(C)(C)C)C(=O)O)c(C)c2C1 [Example 232, (S)-2-(tert-butoxy)-2-(2-(3-ethoxypropanoyl)-4,7-dimethyl-6-(p-tolyl)isoindolin-5-yl)acetic acid], Cc1ccc(-c2c(C)c3c(c(C)c2[C@H](OC(C)(C)C)C(=O)O)CN(C(=O)C(C)(C)C(F)(F)F)C3)cc1 [Example 241, (S)-2-(tert-butoxy)-2-(4,7-dimethyl-6-(p-tolyl)-2-(3,3,3-trifluoro-2,2-dimethylpropanoyl)isoindolin-5-yl)acetic acid] is 5.9-fold lower in IC50: 148 nM for the first, 25 nM for the second.

First: Cc1ccc(-c2c(C)c3c(c(C)c2[C@H](OC(C)(C)C)C(=O)O)CN(C(=O)Cc2cccc(F)c2)C3)cc1 [Example 233, (S)-2-(tert-butoxy)-2-(2-(2-(3-fluorophenyl)acetyl)-4,7-dimethyl-6-(p-tolyl)isoindolin-5-yl)acetic acid]
Second: Cc1ccc(-c2c(C)c3c(c(C)c2[C@H](OC(C)(C)C)C(=O)O)CN(C(=O)c2ccc(F)cc2F)C3)cc1 [Example 247, (S)-2-(tert-butoxy)-2-(2-(2,4-difluorobenzol)-4,7-dimethyl-6-(p-tolyl)isoindolin-5-yl)acetic acid]
The IC50 of the first is 2.4-fold higher: 12 nM for the first, 5 nM for the second.

Compared with Cc1ccc(-c2c(C)c3c(c(C)c2[C@H](OC(C)(C)C)C(=O)O)CN(C(=O)c2cccc(OC(C)C)c2)C3)cc1 [Example 234, (S)-2-(tert-butoxy)-2-(2-(3-isopropoxybenzoyl)-4,7-dimethyl-6-(p-tolyl)isoindolin-5-yl)acetic acid], Cc1ccc(-c2c(C)c3c(c(C)c2[C@H](OC(C)(C)C)C(=O)O)CN(C(=O)c2cccc(B(O)O)c2)C3)cc1 [Example 257, (S)-2-(2-(3-boronobenzoyl)-4,7-dimethyl-6-(p-tolyl)isoindolin-5-yl)-2-(tert-butoxy)acetic acid] is 5.2-fold higher in IC50: 26 nM for the first, 134 nM for the second. The first is the more potent here.

COc1cncc(C(=O)N2Cc3c(C)c(-c4ccc(C)cc4)c([C@H](OC(C)(C)C)C(=O)O)c(C)c3C2)c1 [Example 235, (S)-2-(tert-butoxy)-2-(2-(5-methoxynicotinoyl)-4,7-dimethyl-6-(p-tolyl)isoindolin-5-yl)acetic acid] and Cc1ccc(-c2c(C)c3c(c(C)c2[C@H](OC(C)(C)C)C(=O)O)CN(C(=O)c2cncc(C)c2)C3)cc1 [Example 236, (S)-2-(tert-butoxy)-2-(4,7-dimethyl-2-(5-methylnicotinoyl)-6-(p-tolyl)isoindolin-5-yl)acetic acid] are the same in IC50: 5 nM for the first, 5 nM for the second.

Compared with Cc1ccc(-c2c(C)c3c(c(C)c2[C@H](OC(C)(C)C)C(=O)O)CN(C(=O)c2cn(C)cn2)C3)cc1 [Example 237, (S)-2-(tert-butoxy)-2-(4,7-dimethyl-2-(1-methyl-1H-imidazole-4-carbonyl)-6-(p-tolyl)isoindolin-5-yl)acetic acid], Cc1ccc(-c2c(C)c3c(c(C)c2[C@H](OC(C)(C)C)C(=O)O)CN(C(=O)c2ccn(C)n2)C3)cc1 [Example 240, (S)-2-(tert-butoxy)-2-(4,7-dimethyl-2-(1-methyl-1H-pyrazole-3-carbonyl)-6-(p-tolyl)isoindolin-5-yl)acetic acid] is 1.8-fold higher in IC50: 67 nM for the first, 121 nM for the second.

Compared with Cc1ccc(-c2c(C)c3c(c(C)c2[C@H](OC(C)(C)C)C(=O)O)CN(C(=O)c2ccccc2C(C)(C)C)C3)cc1 [Example 242, (S)-2-(tert-butoxy)-2-(2-(2-(tert-butyl)benzoyl)-4,7-dimethyl-6-(p-tolyl)isoindolin-5-yl)acetic acid], Cc1ccc(-c2c(C)c3c(c(C)c2[C@H](OC(C)(C)C)C(=O)O)CN(C(=O)c2cccnc2C)C3)cc1 [Example 259, (S)-2-(tert-butoxy)-2-(4,7-dimethyl-2-(2-methylnicotinoyl)-6-(p-tolyl)isoindolin-5-yl)acetic acid] is 1.5-fold higher in IC50: 13 nM for the first, 20 nM for the second.

Cc1ccc(-c2c(C)c3c(c(C)c2[C@H](OC(C)(C)C)C(=O)O)CN(C(=O)C2(C)CCCCC2)C3)cc1 [Example 243, (S)-2-(tert-butoxy)-2-(4,7-dimethyl-2-(1-methylcyclohexanecarbonyl)-6-(p-tolyl)isoindolin-5-yl)acetic acid] and COC1CCCC(C(=O)N2Cc3c(C)c(-c4ccc(C)cc4)c([C@H](OC(C)(C)C)C(=O)O)c(C)c3C2)C1 (stereo partly drawn) [Example 244, (2S)-2-(tert-butoxy)-2-(2-(3-methoxycyclohexanecarbonyl)-4,7-dimethyl-6-(p-tolyl)isoindolin-5-yl)acetic acid] are within 1.5-fold of each other in IC50: 18 nM for the first, 14 nM for the second.

Cc1ccc(-c2c(C)c3c(c(C)c2[C@H](OC(C)(C)C)C(=O)O)CN(C(=O)c2ccc(F)c(C)c2)C3)cc1 [Example 246, (S)-2-(tert-butoxy)-2-(2-(4-fluoro-3-methylbenzoyl)-4,7-dimethyl-6-(p-tolyl)isoindolin-5-yl)acetic acid] and Cc1ccc(-c2c(C)c3c(c(C)c2[C@H](OC(C)(C)C)C(=O)O)CN(C(=O)c2ccc(F)c(Cl)c2)C3)cc1 [Example 252, (S)-2-(tert-butoxy)-2-(2-(3-chloro-4-fluorobenzoyl)-4,7-dimethyl-6-(p-tolyl)isoindolin-5-yl)acetic acid] are within 1.5-fold of each other in IC50: 5 nM for the first, 4 nM for the second.

COc1ccc(F)c(C(=O)N2Cc3c(C)c(-c4ccc(C)cc4)c([C@H](OC(C)(C)C)C(=O)O)c(C)c3C2)c1 [Example 248, (S)-2-(tert-butoxy)-2-(2-(2-fluoro-5-methoxybenzoyl)-4,7-dimethyl-6-(p-tolyl)isoindolin-5-yl)acetic acid] and COc1ccc(C)c(C(=O)N2Cc3c(C)c(-c4ccc(C)cc4)c([C@H](OC(C)(C)C)C(=O)O)c(C)c3C2)c1 [Example 249, (S)-2-(tert-butoxy)-2-(2-(5-methoxy-2-methylbenzoyl)-4,7-dimethyl-6-(p-tolyl)isoindolin-5-yl)acetic acid] are the same in IC50: 5 nM for the first, 5 nM for the second.

Compared with COc1ccc(C)cc1C(=O)N1Cc2c(C)c(-c3ccc(C)cc3)c([C@H](OC(C)(C)C)C(=O)O)c(C)c2C1 [Example 250, (S)-2-(tert-butoxy)-2-(2-(2-methoxy-5-methylbenzoyl)-4,7-dimethyl-6-(p-tolyl)isoindolin-5-yl)acetic acid], COc1cccc(C(=O)N2Cc3c(C)c(-c4ccc(C)cc4)c([C@H](OC(C)(C)C)C(=O)O)c(C)c3C2)c1C [Example 258, (S)-2-(tert-butoxy)-2-(2-(3-methoxy-2-methylbenzoyl)-4,7-dimethyl-6-(p-tolyl)isoindolin-5-yl)acetic acid] is 3.8-fold higher in IC50: 4 nM for the first, 15 nM for the second. The first is the more potent here.

COc1cc(C(=O)N2Cc3c(C)c(-c4ccc(C)cc4)c([C@H](OC(C)(C)C)C(=O)O)c(C)c3C2)ccc1F [Example 251, (S)-2-(tert-butoxy)-2-(2-(4-fluoro-3-methoxybenzoyl)-4,7-dimethyl-6-(p-tolyl)isoindolin-5-yl)acetic acid] and Cc1ccc(-c2c(C)c3c(c(C)c2[C@H](OC(C)(C)C)C(=O)O)CN(C(=O)c2ccc(F)c(F)c2)C3)cc1 [Example 261, (S)-2-(tert-butoxy)-2-(2-(3,4-difluorobenzol)-4,7-dimethyl-6-(p-tolyl)isoindolin-5-yl)acetic acid] are within 1.5-fold of each other in IC50: 3 nM for the first, 4 nM for the second.

Going from COc1cccc(C(=O)N2Cc3c(C)c(-c4ccc(C)cc4)c([C@H](OC(C)(C)C)C(=O)O)c(C)c3C2)c1F [Example 253, (S)-2-(tert-butoxy)-2-(2-(2-fluoro-3-methoxybenzoyl)-4,7-dimethyl-6-(p-tolyl)isoindolin-5-yl)acetic acid] to Cc1ccc(-c2c(C)c3c(c(C)c2[C@H](OC(C)(C)C)C(=O)O)CN(C(=O)c2cc(F)ccc2F)C3)cc1 [Example 262, (S)-2-(tert-butoxy)-2-(2-(2,5-difluorobenzoyl)-4,7-dimethyl-6-(p-tolyl)isoindolin-5-yl)acetic acid], the IC50 falls from 12 nM to 5 nM (2.4-fold).

Going from Cc1ccc(-c2c(C)c3c(c(C)c2[C@H](OC(C)(C)C)C(=O)O)CN(C(=O)c2ccc(F)cc2)C3)cc1 [Example 254, (S)-2-(tert-butoxy)-2-(2-(4-fluorobenzoyl)-4,7-dimethyl-6-(p-tolyl)isoindolin-5-yl)acetic acid] to Cc1ccc(-c2c(C)c3c(c(C)c2[C@H](OC(C)(C)C)C(=O)O)CN(C(=O)c2ccc4c(c2)B(O)OC4)C3)cc1 [Example 256, (S)-2-(tert-butoxy)-2-(2-(1-hydroxy-1,3-dihydrobenzo[c][1,2]oxaborole-6-carbonyl)-4,7-dimethyl-6-(p-tolyl)isoindolin-5-yl)acetic acid], the IC50 rises from 4 nM to 740 nM (180-fold). The first is the more potent here.

Compared with Cc1ccc(-c2c(C)c3c(c(C)c2[C@H](OC(C)(C)C)C(=O)O)CN(C(=O)c2ccc4c(c2)OCCO4)C3)cc1 [Example 255, (S)-2-(tert-butoxy)-2-(2-(2,3-dihydrobenzo[b][1,4]dioxine-6-carbonyl)-4,7-dimethyl-6-(p-tolyl)isoindolin-5-yl)acetic acid], Cc1ccc(-c2c(C)c3c(c(C)c2[C@H](OC(C)(C)C)C(=O)O)CN(C(=O)c2cc(Cl)ccc2C)C3)cc1 [Example 263, (S)-2-(tert-butoxy)-2-(2-(5-chloro-2-methylbenzoyl)-4,7-dimethyl-6-(p-tolyl)isoindolin-5-yl)acetic acid] is 2.2-fold lower in IC50: 13 nM for the first, 6 nM for the second. The second is the more potent here.

For Cc1ccc(-c2c(C)c3c(c(C)c2[C@H](OC(C)(C)C)C(=O)O)CN(C(=O)c2cnccc2C)C3)cc1 [Example 260, (S)-2-(tert-butoxy)-2-(4,7-dimethyl-2-(4-methylnicotinoyl)-6-(p-tolyl)isoindolin-5-yl)acetic acid], the IC50 was 15 nM.

Same assay, conditions: MT-4 cells; luciferase/cell titer glo readout after 96 hours; 10 point dose response

Compared with Cc1ccc(-c2c(C)c3c(c(C)c2[C@H](OC(C)(C)C)C(=O)O)CN(C(=O)c2nccn2C)C3)cc1 [Example 238, (S)-2-(tert-butoxy)-2-(4,7-dimethyl-2-(1-methyl-1H-imidazole-2-carbonyl)-6-(p-tolyl)isoindolin-5-yl)acetic acid], COC1CCCC(C(=O)N2Cc3c(C)c(-c4ccc(C)cc4)c([C@H](OC(C)(C)C)C(=O)O)c(C)c3C2)C1 (stereo partly drawn) [Example 245, (2S)-2-(tert-butoxy)-2-(2-(3-methoxycyclohexanecarbonyl)-4,7-dimethyl-6-(p-tolyl)isoindolin-5-yl)acetic acid] is 36-fold lower in IC50: 940 nM for the first, 26 nM for the second.

In the case of Cc1ccc(-c2c(C)c3c(c(C)c2[C@H](OC(C)(C)C)C(=O)O)CN(C(=O)c2nccn2C)C3)cc1 [Example 239, (S)-2-(tert-butoxy)-2-(4,7-dimethyl-2-(1-methyl-1H-imidazole-2-carbonyl)-6-(p-tolyl)isoindolin-5-yl)acetic acid], the IC50 is reported as 16 nM.
